Experimental data published in ChEMBL document CHEMBL2440027, “Further SAR studies on bicyclic basic merbarone analogues as potent antiproliferative agents” (Bioorg Med Chem, 2013).

Experiments:
SK-OV-3 [1] = experiment: Growth inhibition of human SKOV3 cells assessed as cell growth at 10 uM after 48 hrs by sulforhodamine B assay relative to control; format: functional; conditions: SK-OV-3, 48 h, read-out: Activity
OVCAR-4 [2] = experiment: Growth inhibition of human OVCAR4 cells assessed as cell growth at 10 uM after 48 hrs by sulforhodamine B assay relative to control; format: functional; conditions: OVCAR-4, 48 h, read-out: Activity
OVCAR-3 [3] = experiment: Growth inhibition of human OVCAR3 cells assessed as cell growth at 10 uM after 48 hrs by sulforhodamine B assay relative to control; format: functional; conditions: OVCAR-3, 48 h, read-out: Activity
MDA-MB-435 = experiment: Growth inhibition of human MDA-MB-435 cells assessed as cell growth at 10 uM after 48 hrs by sulforhodamine B assay relative to control; format: functional; conditions: MDA-MB-435, 48 h, read-out: Activity
M14 [4] = experiment: Growth inhibition of human M14 cells assessed as cell growth at 10 uM after 48 hrs by sulforhodamine B assay relative to control; format: functional; conditions: M14, 48 h, read-out: Activity
LOX IMVI = experiment: Growth inhibition of human LOXIMVI cells assessed as cell growth at 10 uM after 48 hrs by sulforhodamine B assay relative to control; format: functional; conditions: read-out: Activity
Malme-3M [5] = experiment: Growth inhibition of human MALME-3M cells assessed as cell growth at 10 uM after 48 hrs by sulforhodamine B assay relative to control; format: functional; conditions: read-out: Activity
KM12 = experiment: Growth inhibition of human KM12 cells assessed as cell growth at 10 uM after 48 hrs by sulforhodamine B assay relative to control; format: functional; conditions: KM12, 48 h, read-out: Activity
NCI-H522 = experiment: Growth inhibition of human NCI-H522 cells assessed as cell growth at 10 uM after 48 hrs by sulforhodamine B assay relative to control; format: functional; conditions: NCI-H522, 48 h, read-out: Activity
[6] = Growth inhibition of human EKVX cells assessed as cell growth at 10 uM after 48 hrs by sulforhodamine B assay relative to control; format: functional; conditions: read-out: Activity
A549 = experiment: Growth inhibition of human A549/ATCC cells assessed as cell growth at 10 uM after 48 hrs by sulforhodamine B assay relative to control; format: functional; conditions: A549, 48 h, read-out: Activity
RPMI-8226 = experiment: Growth inhibition of human RPMI8226 cells assessed as cell growth at 10 uM after 48 hrs by sulforhodamine B assay relative to control; format: functional; conditions: RPMI-8226, 48 h, read-out: Activity
MOLT-4 = experiment: Growth inhibition of human MOLT4 cells assessed as cell growth at 10 uM after 48 hrs by sulforhodamine B assay relative to control; format: functional; conditions: MOLT-4, 48 h, read-out: Activity
MT4 = experiment: Cytotoxicity against human MT4 cells; format: functional, cell-based
MDA-MB-468 [7] = experiment: Growth inhibition of human MDA-MB-468 cells after 48 hrs by sulforhodamine B assay; format: functional; conditions: MDA-MB-468, 48 h
T47D [8] = experiment: Growth inhibition of human T47D cells after 48 hrs by sulforhodamine B assay; format: functional
RXF 393 = experiment: Growth inhibition of human RXF393 cells after 48 hrs by sulforhodamine B assay; format: functional; conditions: RXF 393, 48 h
SK-OV-3 [9] = experiment: Growth inhibition of human SKOV3 cells after 48 hrs by sulforhodamine B assay; format: functional; conditions: SK-OV-3, 48 h
OVCAR-8 = experiment: Growth inhibition of human OVCAR8 cells after 48 hrs by sulforhodamine B assay; format: functional; conditions: OVCAR-8, 48 h
OVCAR-4 [10] = experiment: Growth inhibition of human OVCAR4 cells after 48 hrs by sulforhodamine B assay; format: functional; conditions: OVCAR-4, 48 h
OVCAR-3 [11] = experiment: Growth inhibition of human OVCAR3 cells after 48 hrs by sulforhodamine B assay; format: functional; conditions: OVCAR-3, 48 h
UACC-62 = experiment: Growth inhibition of human UACC62 cells after 48 hrs by sulforhodamine B assay; format: functional; conditions: UACC-62, 48 h
M14 [12] = experiment: Growth inhibition of human M14 cells after 48 hrs by sulforhodamine B assay; format: functional; conditions: M14, 48 h
Malme-3M [13] = experiment: Growth inhibition of human MALME-3M cells after 48 hrs by sulforhodamine B assay; format: functional
SNB-19 = experiment: Growth inhibition of human SNB19 cells after 48 hrs by sulforhodamine B assay; format: functional; conditions: SNB-19, 48 h
NCI-H460 = experiment: Growth inhibition of human NCI-H460 cells after 48 hrs by sulforhodamine B assay; format: functional; conditions: NCI-H460, 48 h
NCI-H322M = experiment: Growth inhibition of human NCI-H322M cells after 48 hrs by sulforhodamine B assay; format: functional
[14] = Growth inhibition of human EKVX cells after 48 hrs by sulforhodamine B assay; format: functional
SR = experiment: Growth inhibition of human SR cells after 48 hrs by sulforhodamine B assay; format: functional
MDA-MB-468 [15] = experiment: Growth inhibition of human MDA-MB-468 cells assessed as cell growth at 10 uM after 48 hrs by sulforhodamine B assay relative to control; format: functional; conditions: MDA-MB-468, 48 h, read-out: Activity
T47D [16] = experiment: Growth inhibition of human T47D cells assessed as cell growth at 10 uM after 48 hrs by sulforhodamine B assay relative to control; format: functional; conditions: read-out: Activity
BT-549 = experiment: Growth inhibition of human BT549 cells assessed as cell growth at 10 uM after 48 hrs by sulforhodamine B assay relative to control; format: functional; conditions: BT-549, 48 h, read-out: Activity
[17] = Growth inhibition of human Hs 578T cells assessed as cell growth at 10 uM after 48 hrs by sulforhodamine B assay relative to control; format: functional; conditions: read-out: Activity
MDA-MB-231 = experiment: Growth inhibition of human MDA-MB-231 cells assessed as cell growth at 10 uM after 48 hrs by sulforhodamine B assay relative to control; format: functional; conditions: MDA-MB-231, 48 h, read-out: Activity
TK-10 = experiment: Growth inhibition of human TK10 cells assessed as cell growth at 10 uM after 48 hrs by sulforhodamine B assay relative to control; format: functional; conditions: TK-10, 48 h, read-out: Activity
[18] = read-out: LC50 (the source's name)

CCCCN(CCCC)CCCNc1nc2c(c(=N)n1-c1ccccc1)c(=S)n(-c1ccccc1)c(=S)n2-c1ccccc1
growth at 10 µM (SK-OV-3 [1]): -86.5%
growth at 10 µM (OVCAR-4 [2]): -82%
growth at 10 µM (OVCAR-3 [3]): -100%
growth at 10 µM (MDA-MB-435): -100%
growth at 10 µM (M14 [4]): -86.3%
growth at 10 µM (LOX IMVI): -89.7%
growth at 10 µM (Malme-3M [5]): -91.5%
growth at 10 µM (KM12): -100%
growth at 10 µM (NCI-H522): -54.8%
growth at 10 µM [6]: -74.2%
growth at 10 µM (A549): -38.4%
growth at 10 µM (RPMI-8226): -53.4%
growth at 10 µM (MOLT-4): -55.8%
IC50 (MT4): 1.6 µM
GI50 (MDA-MB-468 [7]): 0.2 µM
LC50 (concentration killing 50% of cells) (MDA-MB-468 [7]): 0.6 µM
TGI (MDA-MB-468 [7]): 0.3 µM
GI50 (T47D [8]): 0.2 µM
LC50 (T47D [8]): 8.3 µM
TGI (T47D [8]): 0.5 µM
GI50 (RXF 393): 0.2 µM
TGI (RXF 393): 0.5 µM
CC50 (RXF 393; [18]): 36.8 µM
GI50 (SK-OV-3 [9]): 1.5 µM
TGI (SK-OV-3 [9]): 2.9 µM
CC50 (SK-OV-3 [9]; [18]): 5.8 µM
GI50 (OVCAR-8): 0.9 µM
TGI (OVCAR-8): 2.7 µM
GI50 (OVCAR-4 [10]): 0.6 µM
TGI (OVCAR-4 [10]): 1.9 µM
CC50 (OVCAR-4 [10]; [18]): 4.4 µM
GI50 (OVCAR-3 [11]): 0.8 µM
LC50 (OVCAR-3 [11]): 4.6 µM
TGI (OVCAR-3 [11]): 2.1 µM
GI50 (UACC-62): 0.3 µM
TGI (UACC-62): 1.2 µM
CC50 (UACC-62; [18]): 3.5 µM
GI50 (M14 [12]): 0.2 µM
TGI (M14 [12]): 0.4 µM
CC50 (M14 [12]; [18]): 0.8 µM
GI50 (Malme-3M [13]): 0.2 µM
TGI (Malme-3M [13]): 0.5 µM
CC50 (Malme-3M [13]; [18]): 1.5 µM
GI50 (SNB-19): 1.2 µM
TGI (SNB-19): 2.7 µM
CC50 (SNB-19; [18]): 5.8 µM
GI50 (NCI-H460): 0.4 µM
LC50 (NCI-H460): 4 µM
TGI (NCI-H460): 1.6 µM
GI50 (NCI-H322M): 1.4 µM
TGI (NCI-H322M): 3.2 µM
CC50 (NCI-H322M; [18]): 7.4 µM
GI50 [14]: 0.4 µM
TGI [14]: 1.9 µM
CC50 [14, 18]: 4.7 µM
GI50 (SR): 0.3 µM
LC50 (SR): 7 µM
TGI (SR): 1.5 µM
growth at 10 µM (MDA-MB-468 [15]): -89.9%
growth at 10 µM (T47D [16]): -62.1%
growth at 10 µM (BT-549): -90.6%
growth at 10 µM [17]: -64.6%
growth at 10 µM (MDA-MB-231): -89.1%
growth at 10 µM (TK-10): -89.6%
